Source: the supplement of paper PMC10307832

What was measured:
Test in all cases: relative viability (nuclei count vs DMSO), 5 days (fraction); higher = more cells survive
QS11 + OSI-027 = compound: C1CC2=C(C1)C=C(C=C2)OC3=NC(=C4C(=N3)N(C=N4)CC5=CC=C(C=C5)C6=CC=CC=C6)N[C@@H](CC7=CC=CC=C7)CO [QS11] + COc1cccc2cc(-c3nc([C@H]4CC[C@H](C(=O)O)CC4)n4ncnc(N)c34)[nH]c12 [OSI-027] (partner 0.5 µM)
How it was run: (§1)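 After 5 days of treatment, lung cancer cells in 1536-well plates were fixed and stained in a single step (final 0.05% Triton X-100, 1% formaldehyde, 1 ug/ml Hoechst) and their nuclei counted on 4× images. Treatment had been applied by pin tool the day after seeding as one drug alone or as a fixed anchor-drug dose with five library-drug doses (not always all listed) in √10 steps. Relative viability is the nuclei count of treated wells divided by that of vehicle wells, and values are medians of duplicate plates.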

QS11 + Phenformin = compound: C1CC2=C(C1)C=C(C=C2)OC3=NC(=C4C(=N3)N(C=N4)CC5=CC=C(C=C5)C6=CC=CC=C6)N[C@@H](CC7=CC=CC=C7)CO [QS11] + N=C(N)NC(=N)NCCc1ccccc1 [Phenformin] (partner 250 µM)
How it was run: as §1

AZ628 + Bortezomib = compound: CC1=C(C=C(C=C1)NC(=O)C2=CC(=CC=C2)C(C)(C)C#N)NC3=CC4=C(C=C3)N=CN(C4=O)C [AZ628] + CC(C)C[C@H](NC(=O)[C@H](Cc1ccccc1)NC(=O)c1cnccn1)B(O)O [Bortezomib] (partner 0.002 µM)
How it was run: as §1

[1] = compound: C[As](C)SC[C@H](NC(=O)CC[C@H](N)C(=O)O)C(=O)NCC(=O)O [Darinaparsin] + CC(C)C[C@H](NC(=O)[C@H](Cc1ccccc1)NC(=O)c1cnccn1)B(O)O [Bortezomib] (partner 0.002 µM)
How it was run: as §1

Row | Cell Line | relative viability (QS11 + OSI-027; first compound 0.08 µM) | relative viability (QS11 + OSI-027; first compound 0.253 µM) | relative viability (QS11 + OSI-027; first compound 0.8 µM) | relative viability (QS11 + OSI-027; first compound 2.53 µM) | relative viability (QS11 + OSI-027; first compound 8 µM) | relative viability (QS11 + Phenformin; first compound 0.08 µM) | relative viability (QS11 + Phenformin; first compound 0.253 µM) | relative viability (QS11 + Phenformin; first compound 0.8 µM) | relative viability (QS11 + Phenformin; first compound 2.53 µM) | relative viability (QS11 + Phenformin; first compound 8 µM) | relative viability (AZ628 + Bortezomib; first compound 0.08 µM) | relative viability (AZ628 + Bortezomib; first compound 0.253 µM) | relative viability (AZ628 + Bortezomib; first compound 0.8 µM) | relative viability (AZ628 + Bortezomib; first compound 2.53 µM) | relative viability (AZ628 + Bortezomib; first compound 8 µM) | relative viability ([1]; first compound 0.08 µM) | relative viability ([1]; first compound 0.8 µM) | relative viability ([1]; first compound 2.53 µM) | relative viability ([1]; first compound 8 µM)
1 | SK-LU-1 | 0.321 | 0.327 | 0.326 | 0.254 | 0.291 | 0.527 | 0.557 | 0.587 | 0.404 | 0.456 | 1.1 | 1.05 | 1.17 | 0.854 | 1.04 | 1.58 | 1.19 | 0.871 | 1.33
2 | ABC-1 | 0.477 | 0.348 | 0.519 | 0.492 | 0.457 | 0.238 | 0.259 | 0.281 | 0.292 | 0.268 | 0.307 | 0.314 | 0.364 | 0.344 | 0.315 | 0.256 | 0.443 | 0.331 | 0.234
3 | NCI-H23 | 0.626 | 0.516 | 0.52 | 0.453 | 0.305 | 0.769 | 0.779 | 0.853 | 0.678 | 0.877 | 1.12 | 1.01 | 0.805 | 0.887 | 0.551 | 1.17 | 1.19 | 0.795 | 1.14
4 | NCI-H2228 | 0.534 | 0.424 | 0.538 | 0.74 | 0.597 | 0.259 | 0.325 | 0.407 | 0.479 | 0.452 | 0.936 | 1.03 | 0.909 | 0.963 | 0.929 | 1.63 | 1.12 | 0.975 | 1.13
5 | NCI-H441 | 0.614 | 0.619 | 0.76 | 0.566 | 0.548 | 0.861 | 0.958 | 0.71 | 1.01 | 0.884 | 0.733 | 0.47 | 0.973 | 0.454 | 0.441 | 0.611 | 0.513 | 0.636 | 0.447
6 | NCI-H460 | 0.719 | 0.756 | 0.663 | 0.446 | 0.257 | 0.556 | 0.498 | 0.477 | 0.442 | 0.227 | 1.18 | 1.13 | 0.8 | 0.994 | 0.952 | – | 1.11 | 0.703 | 1.84
7 | LU99A | 0.255 | 0.306 | 0.299 | 0.291 | 0.315 | 0.768 | 0.975 | 1.07 | 0.827 | 0.869 | 1.15 | 1.21 | 1.31 | 1.07 | 0.451 | 1.33 | 1.01 | 1.17 | 1.21
8 | UMC-11 | 0.474 | 0.481 | 0.501 | 0.492 | 0.57 | 0.325 | 0.287 | 0.302 | 0.324 | 0.24 | 0.935 | 0.571 | 0.694 | 0.739 | 0.666 | 0.81 | 0.728 | 0.442 | 0.739
